In ChEMBL document CHEMBL3396973, “Synthesis and biological evaluation of new pyrazol-4-ylpyrimidine derivatives as potential ROS1 kinase inhibitors” (Eur J Med Chem, 2015) one finds IC50 data, which are given here for 20 compounds.

Assay [1] deals with T1, Hepatocyte growth factor receptor (Homo sapiens, UniProt P08581).
Assay [2] concerns the target T2, Proto-oncogene tyrosine-protein kinase ROS (Homo sapiens, UniProt P08922).
Assay [3] has as its target T2, Proto-oncogene tyrosine-protein kinase ROS. This is another data set of the same source.
The target is the same in assay [4]. The source holds these as a separate data set.
Assay [5] has the same target. In words: Inhibition of ROS1 (unknown origin) by HotSpot assay.
The target of assay [6] is T1, Hepatocyte growth factor receptor. The source holds these as a separate data set.
Assay [7] has as its target ALK tyrosine kinase receptor (Homo sapiens, UniProt Q9UM73).

T1 sequence (P08581 whole entry): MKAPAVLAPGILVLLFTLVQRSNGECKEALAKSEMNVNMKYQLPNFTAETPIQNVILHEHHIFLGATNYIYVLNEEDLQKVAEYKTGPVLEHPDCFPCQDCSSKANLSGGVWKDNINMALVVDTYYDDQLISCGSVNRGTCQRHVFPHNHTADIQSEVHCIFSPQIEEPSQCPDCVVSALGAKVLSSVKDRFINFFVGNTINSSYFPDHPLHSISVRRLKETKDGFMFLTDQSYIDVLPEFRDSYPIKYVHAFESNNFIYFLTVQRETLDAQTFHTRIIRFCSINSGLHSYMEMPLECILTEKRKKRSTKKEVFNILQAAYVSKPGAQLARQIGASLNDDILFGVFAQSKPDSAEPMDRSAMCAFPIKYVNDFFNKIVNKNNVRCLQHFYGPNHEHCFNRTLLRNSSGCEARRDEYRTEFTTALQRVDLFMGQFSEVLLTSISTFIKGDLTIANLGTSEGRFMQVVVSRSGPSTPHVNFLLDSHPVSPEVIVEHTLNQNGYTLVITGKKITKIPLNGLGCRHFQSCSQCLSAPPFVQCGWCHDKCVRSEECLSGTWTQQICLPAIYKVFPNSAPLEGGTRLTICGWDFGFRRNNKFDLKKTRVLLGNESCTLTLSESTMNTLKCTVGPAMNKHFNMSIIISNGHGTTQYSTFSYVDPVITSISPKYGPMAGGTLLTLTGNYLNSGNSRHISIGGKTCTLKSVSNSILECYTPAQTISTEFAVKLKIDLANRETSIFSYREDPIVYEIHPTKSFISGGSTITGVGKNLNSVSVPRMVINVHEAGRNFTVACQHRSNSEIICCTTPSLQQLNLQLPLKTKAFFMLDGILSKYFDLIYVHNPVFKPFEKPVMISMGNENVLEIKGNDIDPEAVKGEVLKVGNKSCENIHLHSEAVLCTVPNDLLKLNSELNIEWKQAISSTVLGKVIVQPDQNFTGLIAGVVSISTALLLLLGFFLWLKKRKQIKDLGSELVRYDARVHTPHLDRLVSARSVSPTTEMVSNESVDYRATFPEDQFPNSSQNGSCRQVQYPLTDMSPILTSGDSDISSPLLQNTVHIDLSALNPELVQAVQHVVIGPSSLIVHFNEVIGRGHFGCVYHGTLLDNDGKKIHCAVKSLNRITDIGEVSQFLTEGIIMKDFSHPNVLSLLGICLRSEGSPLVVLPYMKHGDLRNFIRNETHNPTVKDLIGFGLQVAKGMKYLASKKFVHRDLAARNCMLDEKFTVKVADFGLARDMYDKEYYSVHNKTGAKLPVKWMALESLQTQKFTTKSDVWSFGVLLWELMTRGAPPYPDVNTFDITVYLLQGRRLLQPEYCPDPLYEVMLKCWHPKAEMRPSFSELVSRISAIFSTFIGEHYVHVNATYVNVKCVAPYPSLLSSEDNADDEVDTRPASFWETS
T2 sequence (P08922 whole entry): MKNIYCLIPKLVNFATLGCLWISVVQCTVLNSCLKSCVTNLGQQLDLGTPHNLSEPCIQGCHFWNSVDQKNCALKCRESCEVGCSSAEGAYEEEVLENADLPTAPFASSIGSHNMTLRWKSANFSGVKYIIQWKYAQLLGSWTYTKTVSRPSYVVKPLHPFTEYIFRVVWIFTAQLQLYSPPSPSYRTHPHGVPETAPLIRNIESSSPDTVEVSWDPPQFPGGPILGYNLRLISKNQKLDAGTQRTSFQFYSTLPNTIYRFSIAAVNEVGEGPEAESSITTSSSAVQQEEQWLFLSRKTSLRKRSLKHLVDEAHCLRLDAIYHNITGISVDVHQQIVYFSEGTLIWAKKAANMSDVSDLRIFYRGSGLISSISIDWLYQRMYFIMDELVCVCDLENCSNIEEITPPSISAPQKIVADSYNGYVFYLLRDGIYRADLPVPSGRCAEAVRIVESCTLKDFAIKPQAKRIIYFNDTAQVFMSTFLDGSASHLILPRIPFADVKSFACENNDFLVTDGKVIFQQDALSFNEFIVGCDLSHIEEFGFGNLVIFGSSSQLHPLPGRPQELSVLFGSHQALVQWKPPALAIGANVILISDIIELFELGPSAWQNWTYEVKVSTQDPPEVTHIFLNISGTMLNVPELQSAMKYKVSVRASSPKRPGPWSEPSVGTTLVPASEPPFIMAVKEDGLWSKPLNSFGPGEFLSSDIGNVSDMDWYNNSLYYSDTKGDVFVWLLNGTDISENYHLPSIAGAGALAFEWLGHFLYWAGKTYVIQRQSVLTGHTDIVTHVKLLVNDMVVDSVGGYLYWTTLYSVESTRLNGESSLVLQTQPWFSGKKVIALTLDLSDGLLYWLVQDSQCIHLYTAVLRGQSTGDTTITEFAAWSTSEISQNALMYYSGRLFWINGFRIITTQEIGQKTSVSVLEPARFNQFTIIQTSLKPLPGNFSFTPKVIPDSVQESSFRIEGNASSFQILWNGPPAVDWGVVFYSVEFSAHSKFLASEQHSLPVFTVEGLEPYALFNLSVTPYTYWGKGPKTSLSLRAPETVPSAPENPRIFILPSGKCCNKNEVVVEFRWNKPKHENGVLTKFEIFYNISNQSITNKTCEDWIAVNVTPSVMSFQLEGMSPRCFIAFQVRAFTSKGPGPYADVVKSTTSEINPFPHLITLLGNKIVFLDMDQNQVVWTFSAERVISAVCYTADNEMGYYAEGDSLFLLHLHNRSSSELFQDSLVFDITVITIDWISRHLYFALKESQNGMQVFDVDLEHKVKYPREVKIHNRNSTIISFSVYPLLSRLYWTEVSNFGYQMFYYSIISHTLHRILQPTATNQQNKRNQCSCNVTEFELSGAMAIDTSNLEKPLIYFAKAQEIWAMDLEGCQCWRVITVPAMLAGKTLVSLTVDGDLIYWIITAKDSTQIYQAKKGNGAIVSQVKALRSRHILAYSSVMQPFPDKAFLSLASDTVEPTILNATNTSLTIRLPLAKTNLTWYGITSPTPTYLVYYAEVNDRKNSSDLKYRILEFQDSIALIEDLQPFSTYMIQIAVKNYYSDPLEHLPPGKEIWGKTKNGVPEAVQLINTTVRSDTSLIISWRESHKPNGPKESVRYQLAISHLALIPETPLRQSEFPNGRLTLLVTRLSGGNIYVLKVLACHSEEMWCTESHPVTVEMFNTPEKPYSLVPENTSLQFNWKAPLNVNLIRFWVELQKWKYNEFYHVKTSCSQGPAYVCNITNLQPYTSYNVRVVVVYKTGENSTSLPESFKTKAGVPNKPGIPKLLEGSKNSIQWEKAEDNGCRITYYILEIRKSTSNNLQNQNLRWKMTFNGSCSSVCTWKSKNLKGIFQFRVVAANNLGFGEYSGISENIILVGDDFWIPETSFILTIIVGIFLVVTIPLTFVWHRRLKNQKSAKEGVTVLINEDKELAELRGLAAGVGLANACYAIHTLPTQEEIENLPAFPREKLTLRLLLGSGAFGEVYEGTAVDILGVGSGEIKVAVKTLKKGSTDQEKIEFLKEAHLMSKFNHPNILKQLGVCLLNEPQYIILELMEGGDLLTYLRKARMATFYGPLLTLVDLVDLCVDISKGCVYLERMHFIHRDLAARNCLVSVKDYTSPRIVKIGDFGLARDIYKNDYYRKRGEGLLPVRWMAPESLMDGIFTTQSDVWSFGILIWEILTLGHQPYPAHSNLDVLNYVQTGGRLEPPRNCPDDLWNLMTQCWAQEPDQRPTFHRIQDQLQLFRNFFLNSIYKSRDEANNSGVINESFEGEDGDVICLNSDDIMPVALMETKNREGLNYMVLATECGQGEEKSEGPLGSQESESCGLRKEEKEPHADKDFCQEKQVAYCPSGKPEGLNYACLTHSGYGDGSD

The term IC50 denotes the midpoint of a concentration-inhibition curve. A lower IC50 goes with inhibition by little substance. Consider `COc1cc(C)cc(-c2nn(CC#N)cc2-c2cc(NCC(C)C)nc(-c3cccnc3)n2)c1`, for which the IC50 entry in assay [1] is “Not Active”; in assay [2], 920 nM.

As for `COc1cc(C)cc(-c2nn(CC#N)cc2-c2cc(NCCCO)nc(-c3cccnc3)n2)c1`, the results for the IC50 result in assay [1] and in assay [2] were “Not Active” and 119 nM, respectively.

In the case of `COc1cc(C)cc(-c2nn(CC#N)cc2-c2cc(NCCCCO)nc(-c3cccnc3)n2)c1`, the values for the IC50 result in assay [1] and in assay [2] were “Not Active” and 56 nM, respectively.

`COc1cc(C)cc(-c2nn(CC#N)cc2-c2cc(NCCN3CCOCC3)nc(-c3cccnc3)n2)c1`: the results for the IC50 entry in assay [1] and in assay [2] were “Not Active” and 148 nM, respectively.

Turning to `COc1cc(C)cc(-c2nn(CC#N)cc2-c2cc(NCCCN3CCOCC3)nc(-c3cccnc3)n2)c1`, the values for the IC50 entry in assay [1] and in assay [2] were “Not Active” and 88 nM, respectively.

Regarding `Cc1cc(O)cc(-c2nn(CC#N)cc2-c2cc(NCC(C)C)nc(-c3cccnc3)n2)c1`, the figures for the IC50 entry in assay [1] and in assay [2] were “Not Active” and 780 nM, respectively.

Consider `Cc1cc(O)cc(-c2nn(CC#N)cc2-c2cc(NCCCO)nc(-c3cccnc3)n2)c1`, for which the IC50 entry in assay [1] is “Not Active”; in assay [2] it was 108 nM.

With `Cc1cc(O)cc(-c2nn(CC#N)cc2-c2cc(NCCCCO)nc(-c3cccnc3)n2)c1`, the IC50 entry in assay [1] is “Not Active”; in assay [2], 24 nM.

As to `Cc1cc(O)cc(-c2nn(CC#N)cc2-c2cc(NCCN3CCOCC3)nc(-c3cccnc3)n2)c1`, the concentration for half-maximal inhibition (IC50) result in assay [1] was “Not Active”; in assay [2] it was 478 nM.

As for `Cc1cc(O)cc(-c2nn(CC#N)cc2-c2cc(NCCCN3CCOCC3)nc(-c3cccnc3)n2)c1`, the IC50 result in assay [1] is “Not Active”; in assay [2], 183 nM.

For the compound `COCCCNc1cc(-c2cnc(C)nc2-c2ccc(F)cc2Cl)nc(-c2cccnc2)n1`, the IC50 in assay [2] was found to be 1330 nM.

In the case of `COCCCNc1cc(-c2cnc(C)nc2-c2ccc(Cl)cc2Cl)nc(-c2cccnc2)n1`, half-maximal inhibition in assay [2] (IC50) was put at 357 nM. This IC50 is about 3.7-fold lower than that of the compound before.

With `COCCCNc1cc(-c2cnc(C)nc2-c2ccc(F)cc2Cl)nc(-c2ccccc2)n1`, the IC50 result in assay [3] is recorded as “Not Active”.

On to `COCCCNc1cc(-c2cnc(C)nc2-c2ccc(Cl)cc2Cl)nc(-c2ccccc2)n1`, for which the IC50 entry in assay [3] is on record as “Not Active”.

Compound `Cc1ncc(-c2ccnc(-c3cccnc3)c2)c(-c2ccc(F)cc2Cl)n1` registered an IC50 in assay [2] of 570 nM. In other words, the sub-micromolar range.

Regarding `Cc1ncc(-c2ccnc(-c3cccnc3)c2)c(-c2ccc(Cl)cc2Cl)n1`, half-maximal inhibition in assay [2] (IC50) was put at 330 nM.

In turn, `COc1cc(N2CCC(N(C)C)CC2)ccc1Nc1ncc(Cl)c(Nc2ccccc2P(C)(C)=O)n1` had an IC50 in assay [4] of 1.9 nM.

In assay [5], `COc1ccc(-c2cc(-c3c[nH]nc3-c3cc(C)cc(OC)c3)ccn2)cc1` displayed an IC50 of 1250 nM.

Take `COc1cc(C)cc(-c2c(-c3ccnc(-c4ccc(NC(C)=O)cc4)c3)cnn2CC#N)c1`: 6250 nM corresponded to half-maximal inhibition in assay [5] (IC50).

For the compound `Cc1cc(O)cc(-c2nn(CC#N)cc2-c2cc(NC[C@H](C)O)nc(-c3cccnc3)n2)c1`, the IC50 is 11 nM in assay [6], 1.7 nM in assay [2] and 0.6 nM in assay [7].
